Experimental data from patent US6861071B2, “Highly absorptive solid preparation” (Daiichi Pharmaceutical Co., Ltd., priority 2000, dated 2005).

Test: Promotion of dissolution of sitafloxacin by tartaric acid
Format: physicochemical
From the text: Accordingly, tartaric acid is preferably added in an amount of 0.1 to 1 mole, preferably 1/6 mole to 0.7 mole, more preferably 0.25 to 0.5 mole, especially about 0.5 mole to 1 mole of a quinolone compound, particularly sitafloxacin.

- Effect for promoting dissolution of sitafloxacin (0.1 time molar amount (18.3 mg) of tartaric acid together with 500 mg of sitafloxacin (as an anhydrate)): marked improving effects
- Effect for promoting dissolution of sitafloxacin (0.5 time molar amount (92 mg) of tartaric acid in combination with 500 mg of sitafloxacin): effect becomes maximum
Compound: N[C@@H]1CN(c2c(F)cc3c(=O)c(C(=O)O)cn([C@@H]4C[C@@H]4F)c3c2Cl)CC12CC2 [sitafloxacin, (−)-7-[(7S)-7-amino-5-azaspirol[2.4]heptan-5-yl]-8-chloro-6-fluoro-1-[(1R,2S)-2-fluoro-1-cyclopropyl]-1,4-dihydro-4-oxo-3-quinolinecarboxylic acid]
